Source: PubChem BioAssay AID248 (DTP/NCI, 2004)
Where “and” joins values, the source holds several entries; their conditions need not be identical. Equal values may be shown once. Inconclusive results and toxic doses are left out. Rule as the data show it: active = T/C of 150% or more; inactive = T/C below 125%.

Test system: L1210 leukemia ip in BDF1 mice, survival T/C
Assay: NCI In Vivo Anticancer Drug Screen. Data for tumor model L1210 Leukemia (intraperitoneal) in B6D2F1 (BDF1) mice
Settings: endpoint: mean survival time, higher = longer survival
Procedure, shortened: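 Tumor cells were implanted, animals were treated, and survival was followed. The result divides the treated measurement by the vehicle-control measurement.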

[1] = dose: 25.0 mg/kg/injection, schedule: Q04DX003 (ip), vehicle: saline with Tween-80
[2] = dose: 50.0 mg/kg/injection, schedule: Q04DX003 (ip), vehicle: saline with Tween-80
[3] = dose: 100.0 mg/kg/injection, schedule: Q04DX003 (ip), vehicle: saline with Tween-80
[4] = dose: 100.0 mg/kg/injection, schedule: Q04DX003 (ip), vehicle: saline
[5] = dose: 200.0 mg/kg/injection, schedule: Q04DX003 (ip), vehicle: saline with Tween-80
[6] = dose: 200.0 mg/kg/injection, schedule: Q04DX003 (ip), vehicle: saline
[7] = dose: 400.0 mg/kg/injection, schedule: Q04DX003 (ip), vehicle: saline with Tween-80
[8] = dose: 400.0 mg/kg/injection, schedule: Q04DX003 (ip), vehicle: saline
[9] = dose: 100.0 mg/kg/injection, schedule: Q01DX001 (ip), vehicle: saline
[10] = dose: 200.0 mg/kg/injection, schedule: Q01DX001 (ip), vehicle: saline
[11] = dose: 400.0 mg/kg/injection, schedule: Q01DX001 (ip), vehicle: saline
[12] = dose: 50.0 mg/kg/injection, schedule: Q01DX001 (ip), vehicle: saline

Measured: T/C

COC(CBr)OC
inactive: dose: 10.0 mg/kg/injection, schedule: Q01DX009 (ip), vehicle: saline 95 % of control | dose: 10.0 mg/kg/injection, schedule: Q04DX003 (ip), vehicle: saline 98 % of control | dose: 20.0 mg/kg/injection, schedule: Q01DX009 (ip), vehicle: saline 95 % of control | dose: 20.0 mg/kg/injection, schedule: Q04DX003 (ip), vehicle: saline 101 % of control | [1] 98 % of control | dose: 40.0 mg/kg/injection, schedule: Q01DX009 (ip), vehicle: saline 104 % of control | dose: 40.0 mg/kg/injection, schedule: Q04DX003 (ip), vehicle: saline 108 % of control | [2] 98 % of control

O=C(O)C1C2CCC(C2)C1C(=O)O (configuration not stated)
inactive: [3] 90 % of control | [4] 100 % of control | [5] 98 % of control | [6] 100 % of control | [7] 102 % of control | [8] 105 % of control

Cn1c(Cl)c(C(=O)O)c2ccccc21
inactive: dose: 50.0 mg/kg/injection, schedule: Q04DX002 (ip), vehicle: Klucel (hydroxypropylcellulose) (HPC) 97 % of control | dose: 100.0 mg/kg/injection, schedule: Q04DX002 (ip), vehicle: Klucel (hydroxypropylcellulose) (HPC) 97 % of control | dose: 200.0 mg/kg/injection, schedule: Q04DX002 (ip), vehicle: Klucel (hydroxypropylcellulose) (HPC) 101 % of control

CC1(C)CC(=O)C=C(OCCc2ccccc2)C1
inactive: [3] 96 % of control | [5] 94 % of control | [7] 91 % of control

CCOP(=S)(N/N=C1/C2(C)CCC(C2)C1(C)C)OCC (configuration not stated)
inactive: [9] 97 % of control | [10] 97 % of control | [11] 91 % of control

O=C1OC(=O)C2C1C13CCCC1=C1CCC34C(=O)OC(=O)C43CC123 (configuration not stated)
inactive: dose: 6.25 mg/kg/injection, schedule: Q01DX009 (ip), vehicle: saline 111 % of control | dose: 12.5 mg/kg/injection, schedule: Q01DX001 (ip), vehicle: saline 115 % of control | dose: 12.5 mg/kg/injection, schedule: Q01DX009 (ip), vehicle: saline 109 % of control | dose: 12.5 mg/kg/injection, schedule: Q04DX003 (ip), vehicle: saline 106 % of control | dose: 25.0 mg/kg/injection, schedule: Q01DX001 (ip), vehicle: saline 107 % of control | dose: 25.0 mg/kg/injection, schedule: Q04DX003 (ip), vehicle: saline 104 % of control | [12] 109 % of control

COc1ccccc1CN1CCCN(Cc2ccccc2OC)C1c1cccc(OC)c1O
inactive: [12] 95 % of control | [9] 101 % of control | [10] 93 % of control | [11] 93 % of control

ClCSc1ccccc1
inactive: dose: 100.0 mg/kg/injection, schedule: Q04DX003 (ip), vehicle: other 100 % of control | dose: 200.0 mg/kg/injection, schedule: Q04DX003 (ip), vehicle: other 104 % of control | dose: 400.0 mg/kg/injection, schedule: Q04DX003 (ip), vehicle: other 102 % of control

CO[C@H]1C[C@H](O[C@H]2CC[C@]3(C=O)[C@H]4CC[C@]5(C)[C@@H](C6=CC(=O)OC6)CC[C@]5(O)[C@@H]4CC[C@]3(O)C2)O[C@H](C)[C@H]1O[C@@H]1O[C@H](CO[C@@H]2O[C@H](CO)[C@@H](O)[C@H](O)[C@H]2O)[C@@H](O)[C@H](O)[C@H]1O
inactive: dose: 0.25 mg/kg/injection, schedule: Q01DX001 (sc), vehicle: steriod suspending solution 98 % of control | dose: 0.5 mg/kg/injection, schedule: Q01DX001 (sc), vehicle: steriod suspending solution 96 % of control | dose: 1.0 mg/kg/injection, schedule: Q01DX001 (sc), vehicle: steriod suspending solution 98 % of control | dose: 2.0 mg/kg/injection, schedule: Q01DX001 (sc), vehicle: steriod suspending solution 98 % of control

CCCN(CCC)c1ccc(SC#N)cc1
inactive: [9] 98 % of control | [10] 95 % of control

COC(=O)C1C2CCC(C2)C1C (configuration not stated)
inactive: [1] 101 % of control | [2] 97 % of control | [3] 94 % of control

CCCCCCCCCCCCCCCCOc1ccc(C(=O)OC)cc1[N+](=O)[O-]
inactive: [3] 94 % of control | [5] 90 % of control | [7] 87 % of control

CCC1CC2CN3CCc4c([nH]c5ccccc45)C(C(=O)OC)(C2)C13 (configuration not stated)
inactive: dose: 75.0 mg/kg/injection, schedule: Q01DX001 (ip), vehicle: other 96 % of control | dose: 150.0 mg/kg/injection, schedule: Q01DX001 (ip), vehicle: other 105 % of control

O=C(NO)c1cccnc1
inactive: dose: 100.0 mg/kg/injection, schedule: Q01DX009 (ip), vehicle: Klucel (hydroxypropylcellulose) (HPC) 97 % of control | dose: 200.0 mg/kg/injection, schedule: Q01DX009 (ip), vehicle: Klucel (hydroxypropylcellulose) (HPC) 102 % of control | dose: 270.0 mg/kg/injection, schedule: Q01DX009 (ip), vehicle: acetone 102 % of control | dose: 270.0 mg/kg/injection, schedule: Q01DX015 (ip), vehicle: water 121 % of control | dose: 400.0 mg/kg/injection, schedule: Q01DX001 (ip), vehicle: water 99 % of control | dose: 400.0 mg/kg/injection, schedule: Q01DX009 (ip), vehicle: Klucel (hydroxypropylcellulose) (HPC) 101 % of control | dose: 400.0 mg/kg/injection, schedule: Q01DX009 (ip), vehicle: acetone 109 % of control | dose: 600.0 mg/kg/injection, schedule: Q01DX001 (ip), vehicle: water 106 % of control | dose: 600.0 mg/kg/injection, schedule: Q01DX009 (ip), vehicle: acetone 100 % of control | dose: 800.0 mg/kg/injection, schedule: Q01DX001 (ip), vehicle: water 99 % of control | dose: 800.0 mg/kg/injection, schedule: Q01DX009 (ip), vehicle: Klucel (hydroxypropylcellulose) (HPC) 109 % of control | dose: 800.0 mg/kg/injection, schedule: Q01DX009 (ip), vehicle: acetone 103 % of control | dose: 800.0 mg/kg/injection, schedule: Q01DX015 (ip), vehicle: water 110 % of control and 117 % of control

CC1=C(/C=C/C(C)=N/NC(N)=O)C(C)(C)CCC1
inactive: dose: 100.0 mg/kg/injection, schedule: Q01DX009 (ip), vehicle: saline 100 % of control | [4] 94 % of control | dose: 200.0 mg/kg/injection, schedule: Q01DX009 (ip), vehicle: saline 100 % of control | [6] 102 % of control | [8] 96 % of control

CC(=O)NCCc1ccc(N)cc1
inactive: [9] 108 % of control | [10] 101 % of control | [11] 98 % of control
